Measured values from article PMC11965660, “Isobavachalcone ameliorates Alzheimer disease pathology by autophagy-mediated clearance of amyloid beta and inhibition of NLRP3 inflammasome in primary astrocytes and 5x-FAD mice” (Frontiers in Pharmacology, 2025).
“Also recorded” adds a separate entry of the source. Read-outs that look alike come from different tables or passages of the source.

Experiments:
[1] = Pharmacokinetic analysis in plasma and brain; assay type: in vivo; settings: C57BL/6J mice
Method: C57BL/6J (Jax:000664) male mice were used for pharmacokinetic analysis of IBC. Mice were randomly sorted into 9 groups (n = 5). 30 mg/kg oral dose of IBC (1% DMSO +70% PEG-200 + 29% water) was given to mice. Blood or brain samples were collected at 0, 0.25, 0.5, 1, 2, 4, 6, 8 and 24 h. The plasma (100 µL) sample was processed with ethyl acetate (200 µL) containing IS (150 ng/mL) and centrifuged at 300 g for 10 min. The organic layer was separated and dried in a vacuum, reconstituted with acetonitrile, and analyzed by LC-MS/MS [SRM transition of IBC and IS (Phenacetin) is 325.2 & gt; 149.0 and 180.2 & gt; 110.2 in Positive mode]. Brain homogenate was prepared using the weighted amount of brain tissue in water at the concentration level of 350 mg/mL and processed similarly to plasma samples.

[2] = test system: autophagy pathway proteins; assay: Immunoblotting of autophagy pathway proteins in primary astrocytes; assay type: cell-based, C57BL/6J mice
Method: Primary astrocytes were cultured from C57BL/6J (Jax:000664) mice pups with the approval of Institutional Animal Ethics Committee (IAEC) of CSIR-Indian Institute of Integrative Medicine (IIIM), Jammu, under IAEC number 287/80/2/2022 and 305/81/8/2022. The astrocytes were isolated from the brain of 3–4 days-old mice pups and were grown in 10% FBS-supplemented DMEM media. Briefly, pups were sacrificed through decapitation and sterilized with 70% ethanol. Brain was exposed and isolated. Olfactory lobes and cerebellum were removed with fine blade. The cortical region separated was collected in incomplete media (media without fetal bovine serum) and cut into small pieces. After that, these cortices were incubated at 37°C in 0.25% trypsin for 30 min, with gentle shaking after every 10 min. Trypsin activity was neutralized with complete media and cells were collected using a 70-micron cell strainer followed by centrifugation at 300 g for 5 min. The pellet was dissolved in fresh media and cells were grown in cell culture flasks and were maintained at 37°C in a CO2 incubator. Microglia and oligodendrocytes were separated from the underlying astrocyte layer after 6-7 days by shaking the flask for 6 h at 240 rpm. Cultures astrocytes within 2-4 passage were used for all the experiments.
Cellular lysates were prepared using radio immuno precipitation assay (RIPA) buffer for protein analysis. Briefly, the cell pellet was dissolved in RIPA buffer containing sodium fluoride, sodium orthovanadate, phenyl methyl sulfonyl fluoride (PMSF) and 1% protease inhibitor cocktail for 1 h with vertexing sample every 15 min. The supernatant was collected after high-speed centrifugation of samples for 20 min at 4°C. For analysis of proteins in mice hippocampi, the hippocampi isolated from mice brains was immediately washed with saline and stored in liquid nitrogen. For lysates preparation, tissue was homogenized in RIPA buffer substituted with sodium fluoride, sodium orthovanadate, phenyl methyl sulfonyl fluoride and 1% protease inhibitor cocktail. Total protein was measured using Bradford assay. Proteins were separated using SDS-PAGE and then transferred from gel to PVDF membrane. The protein of interest was labeled with a specific primary antibody overnight at 4°C. Further, the blot was incubated with corresponding HRP-conjugated secondary antibody for 1 h at room temperature. The band were visualized in the Genaxy Chemi Doc imaging system (Make: Syngene, Maryland, USA; Model: G: BOX, XT-4). Densitometry analysis of all the immunoblots was performed by using ImageJ software. Band density of proteins was normalized with β-actin. The phosphorylated proteins were normalized with their total forms.

[3] = male, mouse, blood plasma, 30 mg/kg oral
[4] = male, mouse, brain, 30 mg/kg oral

Cl ([1]; blood plasma, 30 mg/kg oral): 833 ± 120 mL/min/kg
Vd ([1]; blood plasma, 30 mg/kg oral): 355 ± 81 L/kg
AUC0-t ([1]; brain, 30 mg/kg oral): 72 ± 7 ng·h/g
AUC0-∞ ([1]; brain, 30 mg/kg oral): 79 ± 7 ng·h/g
Kp ([1]; male, mouse, brain and plasma, 30 mg/kg oral, read-out: brain-to-plasma ratio): 0.12 to 0.16
AUC(0-inf) [1, 3]: 637 ± 74 ng·h/mL
Cmax [1, 3]: 208 ± 46 ng/mL
Tmax [1, 3]: 0.6 ± 0.1 h
half-life [1, 3]: 5.6 ± 1.5 h
AUC0-t ([1]; male, mouse, blood plasma, 30 mg/kg oral, read-out: AUC0-t): 548 ± 59 ng·h/mL
Cmax [1, 4]: 34 ± 4 ng/g
Tmax [1, 4]: 0.6 ± 0.1 h
half-life [1, 4]: 1.8 ± 0.4 h
Structure (SMILES): CC(C)=CCc1c(O)ccc(C(=O)/C=C/c2ccc(O)cc2)c1O [IBC, isobavachalcone]
blood-brain barrier penetration ([1]; single dose 30 mg/kg p.o., 30 mg/kg): low penetration; also recorded: low brain availability
ATG5 level ([2]; 24 h): upregulated
ATG7 level ([2]; 24 h): upregulated
BECN1 expression ([2]; 24 h): did not show any change
FIP200 phosphorylation ([2]; 24 h): increased phosphorylation
MTOR level ([2]; 24 h): no change
ULK1 phosphorylation ([2]; 24 h): phosphorylated at Ser 317
pLKB1 (Ser 428) level ([2]; 24 h): no change
AMPK phosphorylation (Thr 172) ([2]; 24 h, 5, 10 and 20 μM): concentration-dependent increase
BCL2 level ([2]; 24 h, 5, 10 and 20 μM): marked decline
LC3B-II level ([2]; 24 h, 5, 10 and 20 μM): significant increase
pCAMKK2 (Ser 511) level ([2]; 24 h, 5, 10 and 20 μM): significantly upregulated
SQSTM1 level ([2]; 24 h, 10 and 20 μM): reducing levels
